Measured values taken from ChEMBL document CHEMBL1201862, “PubChem BioAssay data set” (2004).
The source made the active and inactive calls.

Legend:
[1] = target: T1, Sentrin-specific protease 8 (Homo sapiens, UniProt Q96LD8); type: functional
T1 sequence (Q96LD8 whole entry): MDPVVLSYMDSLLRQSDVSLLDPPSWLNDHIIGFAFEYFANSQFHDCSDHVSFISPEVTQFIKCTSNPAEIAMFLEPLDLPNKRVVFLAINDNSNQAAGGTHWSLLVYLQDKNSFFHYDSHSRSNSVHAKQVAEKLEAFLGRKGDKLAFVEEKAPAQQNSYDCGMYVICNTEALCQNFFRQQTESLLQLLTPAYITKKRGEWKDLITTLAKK

[2] = target: T1, Sentrin-specific protease 8; type: functional; remark: listed apart in the source
[3] = target: T2, Small ubiquitin-related modifier 2 (Homo sapiens, UniProt P61956); assay: inhibitors of SUMO2 protein-protein interaction, dose response, selectivity assay for SUMO1 interaction inhibitor project, biochemical, FRET, human SUMO2, uHTS hits (AID 624384); type: functional; details: read-out: IC50_Mean
T2 sequence (P61956 whole entry): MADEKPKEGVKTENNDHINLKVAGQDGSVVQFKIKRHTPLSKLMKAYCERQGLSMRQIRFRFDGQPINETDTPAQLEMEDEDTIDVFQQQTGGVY

[4] = target: T3, Streptokinase A (Streptococcus pyogenes serotype M1, UniProt P10520); assay: S. pyogenes streptokinase expression inhibitors, potency, dose response, plasminogen activation absorbance, OD405 (AID 1914); type: functional, Streptococcus pyogenes M1 GAS;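 note: secreted streptokinase activity via plasminogen activation per viability signal from cell pellet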
T3 sequence (P10520 whole entry): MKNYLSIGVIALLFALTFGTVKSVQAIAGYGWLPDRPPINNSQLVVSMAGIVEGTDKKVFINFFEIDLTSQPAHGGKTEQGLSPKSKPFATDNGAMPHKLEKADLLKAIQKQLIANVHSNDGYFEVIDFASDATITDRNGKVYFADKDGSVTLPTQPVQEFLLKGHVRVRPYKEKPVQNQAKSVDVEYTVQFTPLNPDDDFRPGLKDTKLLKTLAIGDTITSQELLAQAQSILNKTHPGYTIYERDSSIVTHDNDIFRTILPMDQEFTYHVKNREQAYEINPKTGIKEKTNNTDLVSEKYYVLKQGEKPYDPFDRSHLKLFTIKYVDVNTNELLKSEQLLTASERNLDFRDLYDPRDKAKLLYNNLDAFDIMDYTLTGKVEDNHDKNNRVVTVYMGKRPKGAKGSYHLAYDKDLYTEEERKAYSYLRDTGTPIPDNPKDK

[5] = system: Streptococcus sp. 'group A'; assay: growth inhibition of control SK(-) GAS strain, dose response, counter-screen for streptokinase expression inhibitor project, luminescence, kanamycin, BacTiterGlo, confirmation (AID 1900); type: functional, organism-based
[6] = target: T2, Small ubiquitin-related modifier 2; assay: SUMO2–SIM peptide binding inhibitors, dose response, selectivity assay for SUMO1 interaction inhibitor project, biochemical, fluorescence polarization, uHTS hits (AID 624385); type: functional; details: read-out: IC50_Mean
[7] = target: T4, Small ubiquitin-related modifier 1 (Homo sapiens, UniProt P63165); assay: inhibitors of SUMO1 partner interactions, dose response, biochemical, FRET (AID 624383); type: functional; details: read-out: IC50_Mean
T4 sequence (P63165 whole entry): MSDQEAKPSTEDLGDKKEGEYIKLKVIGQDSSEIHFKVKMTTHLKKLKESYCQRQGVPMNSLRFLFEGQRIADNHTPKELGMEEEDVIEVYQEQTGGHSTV

[8] = target: T4, Small ubiquitin-related modifier 1; assay: inhibitors of SUMO1 peptide binding, dose response, biochemical, fluorescence polarization, uHTS hits (AID 624382); type: functional; details: read-out: IC50_Mean
[9] = system: Streptococcus; assay: Group A Streptococcus viability loss, dose response, counter-screen for streptokinase expression inhibitor project, luminescence, BacTiterGlo (AID 1915); type: functional, organism-based;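 note: potency for reduction of bacterial viability or growth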
[10] = target: Induced myeloid leukemia cell differentiation protein Mcl-1 (Homo sapiens, UniProt Q07820); type: functional
Induced myeloid leukemia cell differentiation protein Mcl-1, sequence (Q07820 whole entry): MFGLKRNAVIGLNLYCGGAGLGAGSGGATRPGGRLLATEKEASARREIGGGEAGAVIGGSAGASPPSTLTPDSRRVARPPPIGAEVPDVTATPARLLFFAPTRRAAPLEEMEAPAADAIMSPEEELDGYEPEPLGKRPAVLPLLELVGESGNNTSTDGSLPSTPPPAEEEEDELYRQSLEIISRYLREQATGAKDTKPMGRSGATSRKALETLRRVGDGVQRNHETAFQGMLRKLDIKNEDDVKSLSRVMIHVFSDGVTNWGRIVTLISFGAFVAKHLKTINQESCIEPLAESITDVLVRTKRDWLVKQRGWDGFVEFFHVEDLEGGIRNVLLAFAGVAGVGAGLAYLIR

[11] = HEp-2 cell cytotoxicity, dose response, cytotoxicity control for RSV inhibitor project, HTS (AID 2410); type: functional; details: human respiratory syncytial virus
[12] = target: Mitochondrial peptide methionine sulfoxide reductase (Bos taurus, UniProt P54149); type: functional;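 note: absorbance read-out, biochemical high-throughput dose-response screen for MsrA inhibitors, confirmatory; recombinant bovine MsrA coupled to E. coli TrxB with NADPH and selenocystamine; potency is for inhibitors of MsrA activity on DMSO substrate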
Mitochondrial peptide methionine sulfoxide reductase, sequence (P54149 whole entry): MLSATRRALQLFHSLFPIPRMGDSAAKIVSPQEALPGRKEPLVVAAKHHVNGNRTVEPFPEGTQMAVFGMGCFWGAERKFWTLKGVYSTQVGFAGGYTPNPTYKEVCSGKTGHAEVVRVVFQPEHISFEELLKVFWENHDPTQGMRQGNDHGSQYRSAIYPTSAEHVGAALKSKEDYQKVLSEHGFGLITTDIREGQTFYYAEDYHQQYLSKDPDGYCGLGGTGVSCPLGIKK

[13] = microbe, parasite or virus in culture; type: functional; details: Mycobacterium tuberculosis
[14] = CRF-BP/CRF-R2 complex antagonists, dose response, cell-based, uHTS hits, 384-well (AID 651639); type: functional, Homo sapiens; details: read-out: IC50_Mean
[15] = target: T5, Corticotropin-releasing factor receptor 2/Corticotropin-releasing factor-binding protein (Homo sapiens, UniProt P24387+Q13324); assay: activators of CRF receptor 2 with binding protein – uHTS hits, confirmation (AID 602473); type: functional; details: read-out: EC50_Mean
T5 sequence (Q13324 whole entry): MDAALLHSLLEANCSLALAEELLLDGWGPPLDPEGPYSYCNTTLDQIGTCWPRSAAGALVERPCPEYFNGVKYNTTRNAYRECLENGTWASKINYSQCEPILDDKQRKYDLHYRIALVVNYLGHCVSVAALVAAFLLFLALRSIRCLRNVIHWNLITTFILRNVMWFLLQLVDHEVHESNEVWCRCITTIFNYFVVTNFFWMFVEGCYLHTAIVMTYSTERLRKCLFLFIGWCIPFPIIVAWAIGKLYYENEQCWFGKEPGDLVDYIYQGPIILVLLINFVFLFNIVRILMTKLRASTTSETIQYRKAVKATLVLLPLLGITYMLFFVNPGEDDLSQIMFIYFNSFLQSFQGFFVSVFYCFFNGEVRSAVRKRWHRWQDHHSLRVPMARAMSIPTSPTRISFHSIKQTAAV
T5 sequence (P24387 whole entry): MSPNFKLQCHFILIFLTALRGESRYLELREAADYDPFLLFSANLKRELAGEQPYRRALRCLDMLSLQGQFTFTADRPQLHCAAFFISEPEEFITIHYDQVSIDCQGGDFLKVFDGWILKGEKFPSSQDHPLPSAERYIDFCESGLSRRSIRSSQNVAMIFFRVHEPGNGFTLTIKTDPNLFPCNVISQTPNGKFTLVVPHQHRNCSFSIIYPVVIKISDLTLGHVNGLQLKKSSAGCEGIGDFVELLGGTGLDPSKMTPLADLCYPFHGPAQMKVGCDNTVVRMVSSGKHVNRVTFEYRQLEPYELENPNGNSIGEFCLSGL

[16] = target: T5, Corticotropin-releasing factor receptor 2/Corticotropin-releasing factor-binding protein; assay: Dose Response confirmation of uHTS hits for small molecule antagonists of the CRF-binding protein and CRF-R2 receptor complex.; type: functional; details: read-out: IC50_Mean
[17] = HEK293 cell viability, dose response, counter-screen for EBV LMP1 inhibitor project, dry powder, set 2 (AID 624374); type: functional
[18] = system: Vero; assay: Vero cell toxicity, dose response, cytotoxicity control, plate reader, cherry-pick samples (AID 687020); type: functional, cell-based; details: Chlorocebus sabaeus

Compound: CC(NC(=O)COC(=O)c1ccc([N+](=O)[O-])o1)c1ccccc1 (stereo not drawn)
- IC50 [1]: 7.54 µM (active)
- IC50 [2]: 11.8 µM (active)

Compound: COc1ccc(O)c(C(=O)c2cc(SCC(=O)O)c3nc4sc5c(c4c(=O)n3c2)CCCC5)c1
- IC50 [3]: 46.2 µM (inactive)
- EC50 [4]: 16.4 µM (inconclusive)
- EC50 [5]: 2.67 µM (active)
- IC50 [6]: 6.24 µM (active)
- IC50 [7]: 51.6 µM (inactive)
- IC50 [8]: 2.14 µM (active)
- EC50 [9]: 18.5 µM (inconclusive)
- IC50 [10]: 1.49 µM (active)
- CC50 [11]: 29.1 µM (active)

Compound: N#Cc1c(-n2cccc2/C=N/O)sc2c1CCCC2
- IC50 [12]: 155 µM (inactive)

Compound: Cc1cccc(N(C(=O)c2nsc(Cl)c2Cl)C(C(=O)NC2CCCC2)c2ccc(O)cc2)c1C (stereo not drawn)
- CC50 [13]: 39 µM (active)
- IC50 [14]: > 20 µM (inactive)
- EC50 [15]: > 53 µM (inactive)
- IC50 [16]: 6.4 µM (active)

Compound: Cc1noc(C)c1S(=O)(=O)Nc1ccc2c(c1)C(=O)N([C@@H](C)CO)C[C@H](C)[C@H](CN(C)Cc1ccc(C(F)(F)F)cc1)OCCCC[C@H](C)O2
- AbsAC35 [17]: 149.08 µM

Compound: COc1ccc(CC(=O)NCC2CCCN(Cc3ccc(OC(F)(F)F)cc3)C2)cc1 (stereo not drawn)
- AC50 [18]: 17.1 µM (active)
